Assay [1] in a line: competitive binding to P. falciparum Hsp90 – cell lysate, FLECS, GFP-tagged PfHsp90, E. coli lysate, confirmation (AID 1920066). The following applies: liver stage Plasmodium parasite inhibition.
The subject of assay [2] is Heat shock protein 90 (Plasmodium falciparum), GFP-tagged. The description is as above. The following applies: E. coli lysate PfHsp90-GFP ATP-resin elution, fluorescence; at 500 µM; stronger effect = higher value.

A word on the EC50: it is the midpoint of the concentration-response curve. In the case of `NC(=O)c1ccc(NC(=O)CN2CSCC2=O)cc1`, the EC50 in assay [1] is more than 30 µM. For the same compound, in assay [2], the relative binding (F/Fo) is 2.54.
Taken in the same sequence, the figures for `CS(=O)(=O)c1cccc(C(=O)Nc2nc3ccccc3nc2N2CCCC2)c1` were more than 30 µM and 2.59.
The corresponding values for `Cn1cc(S(=O)(=O)N2CCN(C(=O)c3ccc(F)cc3)CC2)cc1C(N)=O` are more than 10 µM and 2.06.
Taken in the same sequence, the figures for `CCOC(=O)NCc1ccc(-n2c(-c3cc(C(C)C)c(O)cc3O)n[nH]c2=S)cc1` were 1.5 µM and 4.9.
Regarding `CC[C@@H](C)Nc1cc(C(=O)NC2CC3CCC(C2)N3c2ccc(C(=O)C3CC3)cn2)c(C)cc1C(N)=O` (some centres undefined), the EC50 in assay [1] is 0.24 µM. The relative binding (F/Fo) in assay [2] was 3.44.
With `Cc1ccc(C(C)C)c(OCC(=O)Nc2cccc3cnccc23)c1`, the EC50 in assay [1] was more than 30 µM. Also, the relative binding (F/Fo) in assay [2] was 2.15.
The compound `CN(CC(=O)N1CCCC1)c1ncnc2cc(Cl)ccc12` returned an EC50 in assay [1] of more than 30 µM. Also, the relative binding (F/Fo) in assay [2] was 2.06.

The record behind these values is PubChem BioAssay AID1920066 (Derbyshire Lab, Chemistry Department, Duke University, 2024).
